Experimental findings from patent US9670250B2, “Alpha-helical peptidomimetic inhibitors and methods using same” (The Trustees of the University of Pennsylvania, priority 2012, dated 2017) are described below.

Starred links: 1 amine or outer side, 2 acyl side, 3 side chain; linkers in the order of their positions; H or OH if unused. Positions of bridges follow the written chain, without caps; N, C: chain ends. Residues, ends and D or L forms follow the SMILES beside them. mXylylene = c1cc(C[*:1])cc(C[*:2])c1

The target in assay [1] is T1, Cathepsin S (Homo sapiens, UniProt P25774). As to the kind of experiment: in vitro fluorescence-based protease inhibition assay, cathepsin S. The assay is classed as biochemical. An excerpt:
(§1) Thus, the present invention includes a series of potent and highly specific α-helical inhibitors for papain family cysteine proteases. […] These short α-helical peptidomimetic inhibitors are modeled after the natural pro-domain sequence but contain a cysteine substitution at specific residues in i,i+4 positions, as shown in FIG. 2B. These cysteine residues are used for stabilization of the helix utilizing an appropriate linker (Muppidi, et al., 2011, Chem Commun (Camb) 47:9396-9398). After synthesis, each inhibitor was tested against its respective protease using an in vitro fluorescence-based assay. For each enzyme, at least one inhibitor was identified that is relatively potent and highly specific for its individual protease. These inhibitors can be modified or otherwise optimized to attain higher potency and selectivity through identification of key interactions between the inhibitor and the active site amino acid residues. Such optimization involves visual examination of the protease crystal structure, and substitution with either non-natural or natural amino acids to exploit possible crucial non-covalent protein ligand interactions, such as hydrogen bond, electrostatic, hydrophobic, and Van der Waals interactions.
Target sequence in this assay (P25774 115-331, species assumed): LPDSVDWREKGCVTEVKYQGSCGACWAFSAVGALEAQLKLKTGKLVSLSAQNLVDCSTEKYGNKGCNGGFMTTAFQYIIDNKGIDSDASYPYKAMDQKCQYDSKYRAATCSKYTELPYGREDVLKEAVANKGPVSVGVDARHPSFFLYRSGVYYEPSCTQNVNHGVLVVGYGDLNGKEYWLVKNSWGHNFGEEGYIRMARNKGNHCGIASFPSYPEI

The next assay concerns the target T2, Calpain (Calpain-1) (Homo sapiens, UniProt P07384).
T2 sequence (P07384 1-714): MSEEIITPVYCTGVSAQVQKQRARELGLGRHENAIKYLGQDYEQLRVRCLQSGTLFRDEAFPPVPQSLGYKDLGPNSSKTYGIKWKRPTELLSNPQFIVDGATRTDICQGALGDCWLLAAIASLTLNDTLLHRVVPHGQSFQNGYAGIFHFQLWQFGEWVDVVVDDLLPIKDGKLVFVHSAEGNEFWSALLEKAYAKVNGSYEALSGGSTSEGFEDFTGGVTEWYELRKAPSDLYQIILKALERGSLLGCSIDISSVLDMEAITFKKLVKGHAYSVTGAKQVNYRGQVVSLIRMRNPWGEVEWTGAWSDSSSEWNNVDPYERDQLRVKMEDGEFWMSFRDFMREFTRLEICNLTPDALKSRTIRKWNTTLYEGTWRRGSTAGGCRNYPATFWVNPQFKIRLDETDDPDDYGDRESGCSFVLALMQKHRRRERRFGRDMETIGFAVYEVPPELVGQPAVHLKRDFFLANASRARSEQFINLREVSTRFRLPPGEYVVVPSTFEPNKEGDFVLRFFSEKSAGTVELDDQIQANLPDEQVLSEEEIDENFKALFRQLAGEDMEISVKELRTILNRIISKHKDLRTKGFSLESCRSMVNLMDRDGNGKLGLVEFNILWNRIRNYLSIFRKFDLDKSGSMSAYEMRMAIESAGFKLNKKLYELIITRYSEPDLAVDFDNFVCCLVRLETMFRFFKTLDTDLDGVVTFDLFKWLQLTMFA
T2 sequence (P04632 1-268 partner): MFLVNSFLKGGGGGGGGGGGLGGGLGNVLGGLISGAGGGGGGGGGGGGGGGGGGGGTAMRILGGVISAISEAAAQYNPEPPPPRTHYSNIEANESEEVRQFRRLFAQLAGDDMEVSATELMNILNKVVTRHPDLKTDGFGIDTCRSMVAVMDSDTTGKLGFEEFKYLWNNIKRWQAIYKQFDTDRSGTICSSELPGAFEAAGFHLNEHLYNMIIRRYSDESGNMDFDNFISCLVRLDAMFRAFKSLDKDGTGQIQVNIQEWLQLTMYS
Briefly: in vitro fluorescence-based protease inhibition assay, calpain. It is filed as biochemical.
Excerpt: as §1

In the next assay the target is Cathepsin L (Homo sapiens, UniProt P07711). Briefly: in vitro fluorescence-based protease inhibition assay, cathepsin L. It is filed as biochemical.
Excerpt: as §1

For assay [2], the target named is T3, Cathepsin K (Homo sapiens, UniProt P43235).
T3 sequence (P43235 115-329): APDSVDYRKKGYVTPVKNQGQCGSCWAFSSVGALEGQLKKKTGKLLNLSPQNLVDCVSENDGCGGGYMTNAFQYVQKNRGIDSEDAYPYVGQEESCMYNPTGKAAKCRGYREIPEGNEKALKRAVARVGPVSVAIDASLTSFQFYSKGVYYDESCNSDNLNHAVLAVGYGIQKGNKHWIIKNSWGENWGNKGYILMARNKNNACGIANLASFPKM
As to the kind of experiment: in vitro fluorescence-based protease inhibition assay, cathepsin K. The assay is classed as biochemical.
Excerpt: as §1

Assay [3] has as its target Cathepsin K (Homo sapiens, UniProt P43235). Briefly: Ki (µM) (Cathepsin K). An excerpt:
(§2) Table printed on a drawing sheet, FIGURES 2A & 2B
Head of the field: Ki (µM) (Cathepsin K)
(§3) The patent's description of the figure: FIG. 2, comprising FIGS. 2A-2C, illustrate inhibitors of the present invention. FIG. 2A depicts a list of parent and lead cysteine protease inhibitors and their Ki values The bold ‘C’ represents the cysteine linked at the i,i+4 position. […] FIG. 2B is a schematic representation of linked helical peptidomimetics. α,α′-Dibromo-meta-xylene is the i,i+4 linker. FIG. 2C illustrates circular dichroism spectra of unlinked (middle) and linked (right) peptidomimetics (key at left) in 50 mM Tris-HCl buffer (pH 7.5) and 40% trifluoroethanol (TFE). α-Helical stabilization substantially increases helicity in solution.
(§4) First copying reader's note: Bold C residues and underlined sequences mark the linked (stapled) peptides; the meanings of N/A and NT are not printed on the sheet.
Where the first naming reader finds the target: head: Ki (µM) (Cathepsin K)

The target in the next assay is Calpain-1 (Homo sapiens, UniProt P07384). Briefly: Ki (µM) (Calpain).
Excerpt: as §2
Head of the field: Ki (µM) (Calpain)
as §3, §4

Assay [4] addresses T1, Cathepsin S. Briefly: Ki (µM) (Cathepsin S).
Excerpt: as §2
Target sequence in this assay (P25774 115-331 limits assumed): as the sequence (P25774 115-331, species assumed) above
Head of the field: Ki (µM) (Cathepsin S)
as §3, §4
Where the first naming reader finds the target: head: Ki (µM) (Cathepsin S)

Setting [5] is: Table 2, cathepsin S inhibitors.
Setting [6] is: Table 3, cathepsin K inhibitors.

Chain of Cathepsin L (P07711 114-333, species assumed): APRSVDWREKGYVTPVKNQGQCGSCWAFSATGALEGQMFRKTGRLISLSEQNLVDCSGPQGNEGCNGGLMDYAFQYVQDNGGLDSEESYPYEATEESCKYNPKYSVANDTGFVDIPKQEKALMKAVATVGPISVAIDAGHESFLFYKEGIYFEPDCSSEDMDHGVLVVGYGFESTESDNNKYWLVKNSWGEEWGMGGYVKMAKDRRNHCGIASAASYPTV

For TWEWVCSLMCS [SEQ ID NO:23], the “specificity for cathepsin S over cathepsin L” value with Cathepsin S [1] is recorded as “twice as specific”.

In the case of `CC[C@H](C)[C@H](NC(=O)[C@@H](NC(=O)[C@@H](NC(=O)[C@H](CCC(=O)O)NC(=O)[C@H](CCCNC(=N)N)NC(=O)[C@H](CCCCN)NC(=O)CNC(=O)[C@@H](N)CC(C)C)C(C)C)[C@@H](C)O)C(=O)N1CCC[C@H]1C(=O)N1CCC[C@H]1C(=O)N[C@@H](CCCCN)C(=O)N[C@@H](Cc1ccc(O)cc1)C(=O)N[C@H]1CSCc2cccc(c2)CSC[C@@H](C(=O)O)NC(=O)[C@H](CC(C)C)NC(=O)[C@H](CC(C)C)NC(=O)[C@H](CCC(=O)O)NC1=O` [compound 67] (H-LGKREVTIPPKYCELLC-OH; linker 13-17 via mXylylene; N-terminus and C-terminus assumed), the Ki is 3.6 ± 1.7 µM at Calpain (Calpain-1) (Table 4, calpain inhibitors); more than 100 µM at Cathepsin L (Table 4, calpain inhibitors); more than 100 µM at Cathepsin K [2] (Table 4, calpain inhibitors).

For TSEEVCSLMCS [SEQ ID NO:16], the “potency on cathepsin L over cathepsin S, in words” value with Cathepsin L was “much more potent inhibitor of cathepsin L over cathepsin S”. For the same compound, in the assay with Cathepsin S [1], the “cathepsin S inhibitory activity, in words” value is given as “increased inhibition”. The “effect on cathepsin K (inhibition or activation), in words” value with Cathepsin K [2] was “did not inhibit”.

`CSCC[C@H](NC(=O)[C@H](CCCCN)NC(=O)[C@H](CCC(N)=O)NC(=O)[C@@H](NC(=O)[C@@H](NC(=O)[C@H](CCC(=O)O)NC(=O)[C@H](CCC(=O)O)NC(=O)[C@@H](N)CO)C(C)C)C(C)C)C(=O)N[C@H](C(=O)NCC(=O)N[C@@H](CC(C)C)C(=O)O)[C@@H](C)O` [SEQ ID NO:32, SEEVVQKMTGL] (H-SEEVVQKMTGL-OH; N-terminus and C-terminus assumed) displayed a Ki at Cathepsin K [3] of more than 100 µM.

Turning to `CSCC[C@@H]1NC(=O)[C@H](CC(C)C)NC(=O)[C@H](CO)NC(=O)[C@@H](NC(=O)[C@@H](NC(=O)[C@H](Cc2c[nH]c3ccccc23)NC(=O)[C@H](CCC(=O)O)NC(=O)[C@H](CO)NC(=O)[C@@H](N)[C@@H](C)O)C(C)C)CSCc2cccc(c2)CSC[C@@H](C(=O)N[C@@H](CO)C(=O)O)NC1=O` [compound 20] (H-TSEWVCSLMCS-OH; linker 6-10 via mXylylene; N-terminus and C-terminus assumed), the figures for the Ki on Calpain (Calpain-1) (setting [5]), at Cathepsin L (setting [5]) and at Cathepsin K [2] (setting [5]) were more than 100 µM, 57.1 ± 1.24 µM and more than 100 µM, respectively.

With `CSCC[C@H](NC(=O)[C@H](CCCCN)NC(=O)[C@@H]1CSCc2cccc(c2)CSC[C@H](NC(=O)[C@@H](N)CO)C(=O)N[C@@H](CCC(=O)O)C(=O)N[C@@H](CO)C(=O)N[C@@H](C(C)C)C(=O)N1)C(=O)N[C@H](C(=O)NCC(=O)N[C@@H](CC(C)C)C(=O)O)[C@@H](C)O` [compound 37] (H-SCESVCKMTGL-OH; linker 2-6 via mXylylene; N-terminus and C-terminus assumed), the Ki at Calpain (Calpain-1) (setting [6]), on Cathepsin L (setting [6]) and at Cathepsin K [2] (setting [6]) was more than 100 µM throughout.

On Calpain-1, `CC[C@H](C)[C@H](N)C(=O)N1CCC[C@H]1C(=O)N1CCC[C@H]1C(=O)N[C@@H](CCCCN)C(=O)N[C@@H](Cc1ccc(O)cc1)C(=O)N[C@@H](CCCNC(=N)N)C(=O)N[C@@H](CCC(=O)O)C(=O)N[C@@H](CC(C)C)C(=O)N[C@@H](CC(C)C)C(=O)N[C@@H](C)C(=O)O` [SEQ ID NO:62, IPPKYRELLA] (H-IPPKYRELLA-OH; N-terminus and C-terminus assumed) yielded a Ki of more than 100 µM.

Consider `CSCC[C@H](NC(=O)[C@H](CC(C)C)NC(=O)[C@H](CO)NC(=O)[C@H](CC(N)=O)NC(=O)[C@H](CCSC)NC(=O)[C@@H](NC(=O)[C@H](CCC(=O)O)NC(=O)[C@H](CCC(=O)O)NC(=O)[C@H](CO)NC(=O)[C@@H](N)[C@@H](C)O)C(C)C)C(=O)N[C@@H](CO)C(=O)N[C@@H](CO)C(=O)O` [SEQ ID NO:14, TSEEVMNSLMSS] (H-TSEEVMNSLMSS-OH; N-terminus and C-terminus assumed), for which the Ki on Cathepsin S [4] is more than 100 µM.

As to `CSCC[C@H](NC(=O)[C@H](CC(C)C)NC(=O)[C@H](CO)NC(=O)[C@H](CC(N)=O)NC(=O)[C@H](CCSC)NC(=O)[C@@H](NC(=O)[C@H](CCC(=O)O)NC(=O)[C@H](CCC(=O)O)NC(=O)[C@H](CO)NC(=O)[C@@H](N)[C@@H](C)O)C(C)C)C(=O)N[C@@H](CO)C(=O)N[C@@H](CO)C(=O)O` [SEQ ID NO:14, TSEEVMNSLMSS, reference compound] (H-TSEEVMNSLMSS-OH), the “cathepsin S inhibitory activity, in words” value on Cathepsin S [1] is recorded as “did not demonstrate any intrinsic inhibitory activity”.
